Test results as given in BindingDB's records for doi:10.1016/s0960-894x(98)00730-6 (University At Stony Brook, 1999).
Where a SMILES comes first, the peptide text is derived from it. [ ]: non-standard residue; d: D form. The star is where a group is joined. Biotinyl(3aR,4R,6aS) = O=C1N[C@@H]2[C@@H](CS[C@@H]2CCCCC(=O)*)N1; Phe(4-guanidino) = N=C(N)Nc1ccc(C[C@H](N)C(=O)O)cc1; Bpa = N[C@@H](Cc1ccc(C(=O)c2ccccc2)cc1)C(=O)O; X3 = O=C1N[C@@H]2CSC(CCCCC(=O)*)[C@@H]2N1; Phe(4-F) = N[C@@H](Cc1ccc(F)cc1)C(=O)O; X4 = O=C(c1ccccc1)c1ccc(CCC(=O)*)cc1; Orn = NCCC[C@H](N)C(=O)O; X1 = O=C(C=Cc1ccccc1)*; Propionyl = CCC(=O)*

Test: Human Thrombin receptor 1 (PAR-1) antagonistic ability to inhibit SFLLRN-NH2 (2.7 uM)-induced platelet aggregation

SMILES | IC50
N=C(N)NCCC[C@H](NC(=O)[C@H](Cc1ccc(C(=O)c2ccccc2)cc1)NC(=O)[C@H](Cc1ccc(N=C(N)N)cc1)NC(=O)[C@H](Cc1ccc(F)cc1)NC(=O)C=Cc1ccccc1)C(=O)O [(S)-2-{(S)-3-(4-Benzoyl-phenyl)-2-[(S)-2-{(S)-3-(4-fluoro-phenyl)-2-[(E)-(3-phenyl-acryloyl)amino]-propionylamino}-3-(4-guanidino-phenyl)-propionylamino]-propionylamino}-5-guanidino-pentanoic acid] (X1-[Phe(4-F)][Phe(4-guanidino)][Bpa]R-OH) | 6 µM
CC(C)C[C@H](NC(=O)[C@H](Cc1ccc(N=C(N)N)cc1)NC(=O)[C@H](Cc1ccc(F)cc1)NC(=O)C=Cc1ccccc1)C(=O)N[C@@H](Cc1ccc(C(=O)c2ccccc2)cc1)C(=O)N[C@@H](CCCNC(=O)CCCCC1SC[C@H]2NC(=O)N[C@@H]12)C(=O)O (stereo partly drawn) [(2S)-5-{5-[(3aR,6aS)-2-oxo-hexahydro-1H-thieno[3,4-d]imidazolidin-4-yl]pentanamido}-2-[(2S)-3-(4-benzoylphenyl)-2-[(2S)-2-[(2S)-3-(4-carbamimidamidophenyl)-2-[(2S)-3-(4-fluorophenyl)-2-[(2E)-3-phenylprop-2-enamido]propanamido]propanamido]-4-methylpentanamido]propanamido]pentanoic acid] (X1-[Phe(4-F)][Phe(4-guanidino)]L[Bpa][Orn](X3)-OH) | 9.7 µM
CCC(=O)NCCC[C@H](NC(=O)[C@H](Cc1ccc(C(=O)c2ccccc2)cc1)NC(=O)[C@H](CC(C)C)NC(=O)[C@H](Cc1ccc(N=C(N)N)cc1)NC(=O)[C@H](Cc1ccc(F)cc1)NC(=O)C=Cc1ccccc1)C(=O)O [(S)-2-((S)-3-(4-Benzoyl-phenyl)-2-{(S)-2-[(S)-2-{(S)-3-(4-fluoro-phenyl)-2-[(E)-(3-phenyl-acryloyl)amino]-propionylamino}-3-(4-guanidino-phenyl)-propionylamino]-4-methyl-pentanoylamino}-propionylamino)-5-propionylamino-pentanoic acid] (X1-[Phe(4-F)][Phe(4-guanidino)]L[Bpa][Orn](Propionyl)-OH) | 9 µM
CC(C)C[C@H](NC(=O)[C@H](Cc1ccc(N=C(N)N)cc1)NC(=O)[C@H](Cc1ccc(F)cc1)NC(=O)C=Cc1ccccc1)C(=O)N[C@@H](Cc1ccc(C(=O)c2ccccc2)cc1)C(=O)O [(S)-3-(4-Benzoyl-phenyl)-2-{(S)-2-[(S)-2-{(S)-3-(4-fluoro-phenyl)-2-[(E)-(3-phenyl-acryloyl)amino]-propionylamino}-3-(4-guanidino-phenyl)-propionylamino]-4-methyl-pentanoylamino}-propionic acid] (X1-[Phe(4-F)][Phe(4-guanidino)]L[Bpa]-OH) | 13 µM
N=C(N)NCCC[C@H](NC(=O)[C@H](Cc1ccc(C(=O)c2ccccc2)cc1)NC(=O)[C@H](Cc1ccc(N=C(N)N)cc1)NC(=O)[C@H](Cc1ccc(F)cc1)NC(=O)C=Cc1ccccc1)C(=O)N[C@@H](CCCNC(=O)CCCC[C@H]1SC[C@H]2NC(=O)N[C@H]21)C(=O)O [(2S)-5-{5-[(3aR,4R,6aS)-2-oxo-hexahydro-1H-thieno[3,4-d]imidazolidin-4-yl]pentanamido}-2-[(2S)-2-[(2S)-3-(4-benzoylphenyl)-2-[(2S)-3-(4-carbamimidamidophenyl)-2-[(2S)-3-(4-fluorophenyl)-2-[(2E)-3-phenylprop-2-enamido]propanamido]propanamido]propanamido]-5-carbamimidamidopentanamido]pentanoic acid] (X1-[Phe(4-F)][Phe(4-guanidino)][Bpa]R[Orn](Biotinyl(3aR,4R,6aS))-OH) | 3.4 µM
CC(C)C[C@H](NC(=O)[C@H](Cc1ccc(N=C(N)N)cc1)NC(=O)[C@H](Cc1ccc(F)cc1)NC(=O)CCc1ccc(C(=O)c2ccccc2)cc1)C(=O)N[C@@H](CCCNC(=N)N)C(=O)O [(S)-2-{(S)-2-[(S)-2-[(S)-2-[3-(4-Benzoyl-phenyl)-propionylamino]-3-(4-fluoro-phenyl)-propionylamino]-3-(4-guanidino-phenyl)-propionylamino]-4-methyl-pentanoylamino}-5-guanidino-pentanoic acid] (X4-[Phe(4-F)][Phe(4-guanidino)]LR-OH) | 3.1 µM
CC(C)C[C@H](NC(=O)[C@H](Cc1ccc(N=C(N)N)cc1)NC(=O)[C@H](Cc1ccc(F)cc1)NC(=O)C=Cc1ccccc1)C(=O)N[C@@H](CCCNC(=N)N)C(=O)O [(S)-2-{(S)-2-[(S)-2-{(S)-3-(4-Fluoro-phenyl)-2-[(E)-(3-phenyl-acryloyl)amino]-propionylamino}-3-(4-guanidino-phenyl)-propionylamino]-4-methyl-pentanoylamino}-5-guanidino-pentanoic acid] (X1-[Phe(4-F)][Phe(4-guanidino)]LR-OH) | 0.3 µM
CCC(=O)NCCC[C@H](NC(=O)[C@H](CCCNC(=N)N)NC(=O)[C@H](Cc1ccc(C(=O)c2ccccc2)cc1)NC(=O)[C@H](Cc1ccc(N=C(N)N)cc1)NC(=O)[C@H](Cc1ccc(F)cc1)NC(=O)C=Cc1ccccc1)C(=O)O [(S)-2-((S)-2-{(S)-3-(4-Benzoyl-phenyl)-2-[(S)-2-{(S)-3-(4-fluoro-phenyl)-2-[(E)-(3-phenyl-acryloyl)amino]-propionylamino}-3-(4-guanidino-phenyl)-propionylamino]-propionylamino}-5-guanidino-pentanoylamino)-5-propionylamino-pentanoic acid] (X1-[Phe(4-F)][Phe(4-guanidino)][Bpa]R[Orn](Propionyl)-OH) | 3.1 µM
